Consider six compounds from patent US7700775B2, “Compounds and compositions for delivering active agents” (Emisphere Technologies, Inc., priority 2001, dated 2010).

Broadly, the melting point is the temperature of the solid-liquid transition.

Structures can show the parent of a compound that is named as a salt.

A short description of one data set: Oral BIBN4096BS Delivery (plasma BIBN4096BS by LC/MS/MS after oral gavage with delivery agent compound). The settings on record: previous studies; baseline (no delivery agent stated).
Method: Oral gavage (PO) dosing solutions of delivery agent compound and the Calcitonin gene-related peptide antagonist, 1-Piperidinecarboxamide. […] (BIBN4096BS) in water were prepared. […] The final dosing solutions were prepared by mixing the delivery agent compound with a BIBN4096BS stock solution and diluting to the desired volume (usually 1.0 mL). If necessary, the pH of the mixture was adjusted by the addition of aliquots of aqueous hydrochloric acid solution of an appropriate normality until the final pH of the dosing solution was below 7.0. The final compound amounts per dose were 25 mg/kg of BIBN4096BS, 200 mg/kg of delivery agent compound, in a total volume of 1 mL/kg.
The typical dosing and sampling protocols were as follows. Male Sprague-Dawley rats weighing between 200-250 g were fasted for 24 hours and administered ketamine (44 mg/kg) and chlorpromazine (1.5 mg/kg) 15 minutes prior to dosing. A dosing group of five rats was administered one of the dosing solutions. For oral gavage (PO) dosing, an 11 cm Rusch 8 French catheter was adapted to a 1 mL syringe with a pipette tip. The syringe was filled with dosing solution by drawing the solution through the catheter, which was then wiped dry. […] Plasma BIBN4096BS concentrations were quantified by using a liquid chromatography/mass spectrometry/mass spectrometry assay method using UV detection. […]
For the compound `NCCCCC(NC(=O)C(Cc1cc(Br)c(O)c(Br)c1)NC(=O)N1CCC(N2Cc3ccccc3NC2=O)CC1)C(=O)N1CCN(c2ccncc2)CC1` (stereo not drawn) [BIBN4096BS, 1-Piperidinecarboxamide. N-[2-[[5-amino-1-[[4-(4-pyridinyl)-1-piperazinyl)carbonyl]pentyl]amino]-1-[(3,5-dibromo-4-hydroxyphenyl)methyl]-2-oxoethyl]-4(1,4-dihydro-2-oxo-3(2H0-quinazolinyl)-.[R-(R*,S*)]], the “baseline values of plasma BIBN4096BS” value was “about 10 ng/mL”.

Test in the next data set: not given
Conditions: not given
`CCN(CC)CCNC(=O)c1ccccc1O` (as salt: citrate) [Compound 3, N-[2-(diethylamino)ethyl]-2-hydroxybenzamide Mono-citrate] displayed a melting point of 111 to 113 °C. On the same count and under the same terms, the same measure for `NC(=O)c1ccc(CCCCCCN2CCOCC2)cc1O` [Compound 5, 4-(6-morpholin-4-ylhexyl)-salicylamide]: 70 to 73 °C; for `CN(C)c1ccc(CNC(=O)c2ccccc2O)cc1` [Compound 4, N-(4-dimethylaminobenzyl) salicylamide]: 129 to 132 °C. Compound `CCN(CC)CCNC(=O)c1cc(Cl)ccc1O` (as salt: citrate) [Compound 1, N-[2-(diethylamino)ethyl]-5-chloro-2-hydroxybenzamide Mono-citrate] displayed a melting point of 107 to 109 °C. `COc1ccc(C(=O)NCCCCCCCCN)c(O)c1` [Compound 18, N-(2-hydroxy-4-methoxybenzoyl)-1,8-diaminooctane] registered a melting point of 151 to 153 °C.
